In patent US20160075653A1, “NEMATICIDAL N-(PHENYLCYCLOALKYL)CARBOXAMIDES AND N-(PHENYLCYCLOALKYL)THIOCARBOXAMIDES” (BAYER CROPSCIENCE AKTIENGESELLSCHAFT, priority 2013, published 2016):

Columns and labels:
[1] = Measurement of log P values by HPLC on reversed phase columns (methods [a] pH 2.3, [b] pH 2.7, [c] pH 7.8); format: physicochemical
Procedure, shortened: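 Retention times were converted to log P by linear interpolation between linear alkan-2-one standards (3 to 16 carbons) of known log P. Eluents, each with 10% to 95% acetonitrile gradient: phosphoric acid 0.1% at pH 2.3 [a]; formic acid 0.1% at pH 2.7, LC-MS [b]; ammonium hydrogen carbonate 0.001 molar at pH 7.8, LC-MS [c].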

Meloidogyne incognita = Meloidogyne incognita test (MELGIN), gall formation on salad seedlings; format: in vivo; conditions: application rate 20 ppm, after 14 days
Procedure: Meioidovnve incomita—Test (MELGIN)
Solvent: 125.0 parts by weight of acetone
To produce a suitable preparation of active compound, 1 part by weight of active compound is mixed with the stated amount of solvent, and the concentrate is diluted with water to the desired concentration.
Vessels are filled with sand, a solution of the active ingredient, a suspension containing eggs and larvae of the southern root-knot nematode (Meloidogyne incognita) and salad seeds. The salad seeds germinate and the seedlings grow. Galls develop in the roots.
After 14 days the nematicidal activity is determined on the basis of the percentage of gall formation. 100% means that no galls were found; 0% means the number of galls found on the roots of the treated plants was equal to that in untreated control plants.

[2] = method [b], HPLC reversed phase, pH 2.7
[3] = HPLC reversed phase, method [b] (pH 2.7)
[4] = HPLC on reversed phase column, method [b], pH 2.7

## O=C(NC1CCC1c1ccccc1C(F)(F)F)c1ccc(Cl)cc1Cl (centres unmarked) [Compound 217]
[1]; [2]
  logP: 3.81^[b]
Meloidogyne incognita
  nematicidal activity (percentage of gall formation; 100% = no galls): 90%

## O=C(NC1CCC1c1c(F)cccc1F)c1ccccc1Br (centres unmarked) [Compound 227]
[1]; [2]
  logP: 2.97^[b]
Meloidogyne incognita
  nematicidal activity (percentage of gall formation; 100% = no galls): 100%

## O=C(NC1CCC1c1ccccc1C(F)(F)F)c1ccccc1C(F)(F)F (centres unmarked) [Compound 434]
[1]; [3]
  logP: 3.44^[b]
Meloidogyne incognita
  nematicidal activity (percentage of gall formation; 100% = no galls): 90%

## O=C(N[C@@H]1C[C@@H]1c1ccc(Cl)cc1Cl)c1nccnc1C(F)(F)F (relative stereo) [Compound 566]
[1]; [3]
  logP: 3.11^[b]
Meloidogyne incognita
  nematicidal activity (percentage of gall formation; 100% = no galls): 90%

## O=C(NC1CC1c1ccc(Cl)cc1Cl)c1cccnc1Cl (centres unmarked) [Compound 425]
[1]; [3]
  logP: 2.62^[b]
Meloidogyne incognita
  nematicidal activity (percentage of gall formation; 100% = no galls): 100%

## O=C(N[C@@H]1CC[C@@H]1c1c(F)cccc1C(F)(F)F)c1ccccc1 (relative stereo) [Compound 551]
[1]; [3]
  logP: 3.23^[b]
Meloidogyne incognita
  nematicidal activity (percentage of gall formation; 100% = no galls): 100%

## O=C(N[C@@H]1CC[C@H]1c1ccccc1Cl)c1sccc1I (relative stereo) [Compound 544]
[1]; [3]
  logP: 3.86^[b]
Meloidogyne incognita
  nematicidal activity (percentage of gall formation; 100% = no galls): 90%

## O=C(N[C@@H]1CC[C@@H]1c1cccc(F)c1C(F)(F)F)c1cccnc1Cl (relative stereo) [Compound 647]
[1]; [4]
  logP: 2.66^[b]
Meloidogyne incognita
  nematicidal activity (percentage of gall formation; 100% = no galls): 100%

## O=C(N[C@@H]1CC[C@@H]1c1c(F)cccc1C(F)(F)F)c1cccnc1C(F)(F)F (relative stereo) [Compound 577]
[1]; [3]
  logP: 3.81^[b]
Meloidogyne incognita
  nematicidal activity (percentage of gall formation; 100% = no galls): 100%

## O=C(N[C@@H]1CC[C@@H]1c1ccccc1C(F)(F)F)c1cccnc1 (relative stereo) [Compound 619]
[1]; [4]
  logP: 2.06^[b]
Meloidogyne incognita
  nematicidal activity (percentage of gall formation; 100% = no galls): 90%

## O=C(N[C@@H]1CC[C@H]1c1ccc(F)cc1C(F)(F)F)c1ccccc1Br (relative stereo) [Compound 501]
[1]; [3]
  logP: 3.64^[b]
Meloidogyne incognita
  nematicidal activity (percentage of gall formation; 100% = no galls): 100%

## O=C(NC1CCCC1c1ccc(Cl)cc1Cl)c1ccccc1C(F)(F)F (centres unmarked) [Compound 353]
[1]; [3]
  logP: 4.04^[b]
Meloidogyne incognita
  nematicidal activity (percentage of gall formation; 100% = no galls): 100%

## Cn1cc(C(=O)N[C@@H]2CC[C@@H]2c2cc(F)ccc2C(F)(F)F)c(C(F)F)n1 (relative stereo) [Compound 556]
[1]; [3]
  logP: 2.85^[b]
Meloidogyne incognita
  nematicidal activity (percentage of gall formation; 100% = no galls): 90%

## O=C(N[C@@H]1CC[C@@H]1c1cc(F)ccc1C(F)(F)F)c1cccnc1 (relative stereo) [Compound 587]
[1]; [3]
  logP: 2.22^[b]
Meloidogyne incognita
  nematicidal activity (percentage of gall formation; 100% = no galls): 90%

## CCCOc1ccccc1C(=O)N[C@@H]1CCC[C@@H]1c1ccc(F)c(F)c1 (relative stereo) [Compound 86]
[1]; HPLC on reversed phase columns, method [b], pH 2.7
  logP: 4.19^[b]
Meloidogyne incognita
  nematicidal activity (percentage of gall formation; 100% = no galls): 90%

## O=C(N[C@@H]1CC[C@@H]1c1ccccc1C(F)(F)F)c1nccnc1Cl (relative stereo) [Compound 623]
[1]; [4]
  logP: 2.79^[b]
Meloidogyne incognita
  nematicidal activity (percentage of gall formation; 100% = no galls): 100%

## O=C(NC1CCC1c1ccc(F)cc1C(F)(F)F)c1sccc1I (centres unmarked) [Compound 519]
[1]; [3]
  logP: 4.09^[b]
Meloidogyne incognita
  nematicidal activity (percentage of gall formation; 100% = no galls): 90%

## O=C(N[C@@H]1CC[C@@H]1c1c(F)cccc1C(F)(F)F)c1ncccc1Cl (relative stereo) [Compound 537]
[1]; [3]
  logP: 2.92^[b]
Meloidogyne incognita
  nematicidal activity (percentage of gall formation; 100% = no galls): 100%

## O=C(N[C@@H]1CC[C@@H]1c1ccccc1Cl)c1cccnc1C(F)(F)F (relative stereo) [Compound 254]
[1]; [3]
  logP: 2.69^[b]
Meloidogyne incognita
  nematicidal activity (percentage of gall formation; 100% = no galls): 90%

## O=C(NC1CCC1c1ccc(F)cc1C(F)(F)F)c1ncccc1Cl (centres unmarked) [Compound 479]
[1]; [3]
  logP: 3.11^[b]
Meloidogyne incognita
  nematicidal activity (percentage of gall formation; 100% = no galls): 100%

## O=C(NC1CC1c1ccccc1)c1cccnc1C(F)F (centres unmarked) [Compound 225]
Meloidogyne incognita
  nematicidal activity (percentage of gall formation; 100% = no galls): 90%
